The results in this text go back to patent US20260274814A1, “THIENYL COMPOUNDS FOR THE TREATMENT OF A CENTRAL NERVOUS SYSTEM DISEASE OR DISORDER” (Coreterra Therapeutics, Inc., priority 2023, published 2026).

The experiment has as its system mice. Briefly: Neuropharmacological Assay (SmartCube): automated behavioral signature of compound-treated mice compared with a database of reference drug classes. Particulars: for MED / MED (minimal effective dose) / minimal effective dose: i.p., that dose is shown; for minimal effective dose: Mus musculus, ip. Format: in vivo. An excerpt:
Neurosci. 2011 Sep. 9; 5: 103 (doi: 10.3389/fnins.2011.00103) (“Roberds”). As reported in Roberds, because psychiatric diseases generally result from disorders of cell-cell communication or circuitry, intact systems are useful in detecting improvement in disease-relevant endpoints. These endpoints are typically behavioral in nature, often requiring human observation and interpretation. To facilitate testing of multiple compounds for behavioral effects relevant to psychiatric disease, PsychoGenics, Inc. (Tarrytown, NY, “PGI”) developed SmartCube™ an automated system in which behaviors of compound-treated mice are captured by digital video and analyzed with computer algorithms. (D. Brunner et al. Drug Discov. Today 2002, 7:S107-S112). PGI Analytical Systems uses data from SmartCube™ to compare the behavioral signature of a test compound to a database of behavioral signatures obtained using a large set of diverse reference compounds. (The composition of the database as well as validation of the method is further described in Roberds). In this way, the neuropharmacological effects of a test compound can be predicted by similarity to major classes of compounds, such as antipsychotics, anxiolytics and antidepressants.
The SmartCube™ system produces an activity signature indicating the probability that the activity of the test compound at the administered dose matches a given class of neuropharmacological agents. (See, e.g., Roberds, FIGS. 2 and 3). The test compound is simultaneously compared against multiple classes of agents; thus, a separate probability is generated for each behavioral effect measured (e.g., anxiolytic activity, analgesic activity, etc.). In table 2 below, these probabilities are reported for each behavioral effect measured as described in Table 1 below.
Provided compounds were dissolved in a mixture of Pharmasolve™ (N-methyl-2-pyrrolidone), polyethylene glycol and propylene glycol, and were injected i.p. 15 min. before the behavioral test. For each compound, injections were administered at 3 different doses. For each behavioral effect measured, results for the 3.0 mg/kg dose are presented. The potency of many of the compounds in the table was also determined in the SmartCube™ system. Test compounds were routinely examined at dose levels of 0.3, 1, 3 and 10 mg per kg (mpk), although the dose range was increased or decreased, if necessary, to obtain a full dose response curve. A compound's minimal effective dose (MED) is a measure of the compound's potency. The MED was defined as the dose (in mpk) having 45% or more total activity in SmartCube. If only one dose was tested, that dose is shown in the MED column of Table 2 even though the dose is not known to be the MED.

Where [1] appears, read: SmartCube probability class, 3.0 mg/kg dose, i.p. 15 min before the behavioral test.
Where [2] appears, read: SmartCube probability class, 3.0 mg/kg dose, i.p. 15 min before the behavioral test, hydrochloride, 3 mg/kg.
[3] abbreviates: minimal effective dose: dose having 45% or more total activity in SmartCube, if only one dose was tested.
Setting [4] is: probability that activity matches this class of agents, 3.0 mg/kg i.p., 15 min before test.
[5] abbreviates: probability that activity matches this class of agents, 3.0 mg/kg i.p., 15 min before test, 3 mg/kg.
Setting [6] is: minimal effective dose: dose having 45% or more total activity in SmartCube, if only one dose tested, read-out: MED.
Where [7] appears, read: SmartCube class probability, 3.0 mg/kg i.p., 15 min before test.
The mark [8] stands for this setting: dose having 45% or more total activity in SmartCube, if only one dose was tested, read-out: MED (minimal effective dose).
Where [9] appears, read: SmartCube class probability, 3.0 mg/kg i.p., 15 min before test, hydrochloride, 3 mg/kg.
Setting [10] is: probability that activity matches this class of agents, 3.0 mg/kg i.p., 15 min before test, hydrochloride, 3 mg/kg.

Structures can show the parent of a compound that is named as a salt. Where two headings read alike, the source gives them in different places. Where only a bound is given, the exact number is not on record here.

For the compound `CNC1Cc2cc(C)sc2C1` (single isomer, unassigned) [Compound 319, N, 2-dimethyl-5,6-dihydro-4H-cyclopenta[b]thiophen-5-amine hydrochloride], under setting [1], the AD result is listed as “ND (^ <4%)”, the AG entry is on record as “ND (^ <4%)”, the AN result was “ND (^ <4%)” and the HL result was “ND (^ <4%)”. Also, under setting [1], the MS entry is “ND (^ <4%)”, the PS result is reported as “ND (^ <4%)” and the SH entry is recorded as “ND (^ <4%)”. For the same compound, under setting [2], the AP result is listed as “ND (^ <4%)”, the AX result is “++++ (≥74%)”, the CE entry is given as “+ (≥4%)” and the UK entry is “ND (^ <4%)”. Under setting [3], this compound returned an MED of 3 mpk.

With `CNC1CCc2c(C)sc(C(F)(F)F)c2C1` (single isomer, unassigned; enantiomer 2) [Compound 105, N, 1-dimethyl-3-(trifluoromethyl)-4,5,6,7-tetrahydro-2-benzothiophen-5-amine hydrochloride enantiomer 2], the “MED (minimal effective dose)” value (dose having 45% or more total activity in SmartCube, if only one dose was tested) is >3 mpk. For the same compound, under setting [4], the AD entry was “ND (^ <4%)”, the AG result was “ND (^ <4%)”, the AN entry is reported as “ND (^ <4%)” and the AX result was “ND (^ <4%)”. Besides, under setting [4], the CE entry is “ND (^ <4%)”, the HL result was “ND (^ <4%)”, the MS entry was “ND (^ <4%)” and the PS result was “ND (^ <4%)”. The SH entry under setting [4] is reported as “ND (^ <4%)”. Also, under setting [5], the AP result was “ND (^ <4%)” and the UK result is given as “ND (^ <4%)”.

Take `CNC1CCc2scc(CN)c2C1` (single isomer, unassigned) [Compound 236, 3-(aminomethyl)-N-methyl-4,5,6,7-tetrahydrobenzothiophen-5-amine dihydrochloride]: the minimal effective dose under setting [6] was > 3 mg/kg. Moreover, under setting [7], the AD result is given as “ND (^ <4%)”, the AG entry is listed as “ND (^ <4%)”, the AN entry is “ND (^ <4%)” and the AP entry was “ND (^ <4%)”. Further, under setting [7], the AX entry is “ND (^ <4%)”, the CE entry was “ND (^ <4%)”, the HL entry was “ND (^ <4%)” and the MS entry is listed as “ND (^ <4%)”. Moreover, under setting [7], the PS result is recorded as “ND (^ <4%)” and the SH entry is “ND (^ <4%)”. Where the note is “SmartCube class probability, 3.0 mg/kg i.p., 15 min before test, dihydrochloride, 3 mg/kg”, the UK result is “ND (^ <4%)”.

With `CN(C)C1(C)CCc2ccsc2C1` (single isomer, unassigned) [Compound 119, N, N, 6-trimethyl-5,7-dihydro-4H-benzothiophen-6-amine hydrochloride], the minimal effective dose under setting [8] amounted to 3 mg/kg. Further, under setting [4], the AD result is given as “ND (^ <4%)”, the AG result was “ND (^ <4%)”, the AN result is “ND (^ <4%)” and the AP entry is “ND (^ <4%)”. Under setting [4], the AX entry was “++++ (≥74%)”, the CE result is recorded as “ND (^ <4%)”, the HL entry is reported as “ND (^ <4%)” and the MS entry is recorded as “ND (^ <4%)”. For the same compound, under setting [4], the PS entry is reported as “ND (^ <4%)”, the SH result is on record as “ND (^ <4%)” and the UK entry was “ND (^ <4%)”.

For the compound `Cc1csc2c1CC(N)CC2` (single isomer, unassigned) [Compound 143, 3-methyl-4,5,6,7-tetrahydrobenzothiophen-5-amine hydrochloride], the minimal effective dose under setting [6] worked out at 1 mg/kg. Under setting [7], the AG result is on record as “ND (^ <4%)”, the AN result is “ND (^ <4%)”, the AP result was “ND (^ <4%)” and the AX result was “ND (^ <4%)”. For the same compound, under setting [7], the CE entry is reported as “ND (^ <4%)” and the MS entry is “ND (^ <4%)”. Besides, under setting [9], the AD entry is “+ (≥4%)”, the HL result was “+ (≥4%)”, the PS result is given as “++ (≥24%)” and the SH result is reported as “+ (≥4%)”. The UK entry under setting [9] is “ND (^ <4%)”.

`CNC1CCc2scc(Cl)c2C1` (single isomer, unassigned) [Compound 131, 3-chloro-N-methyl-4,5,6,7-tetrahydrobenzothiophen-5-amine hydrochloride]: the minimal effective dose under setting [8] was 3 mg/kg. Under setting [4], the AG entry is “ND (^ <4%)”, the AN entry is “ND (^ <4%)”, the AX result was “ND (^ <4%)” and the CE entry is given as “ND (^ <4%)”. Further, under setting [4], the HL result is “ND (^ <4%)” and the SH entry is given as “ND (^ <4%)”. For the same compound, under setting [10], the AD entry is given as “+ (≥4%)”, the AP entry is “++ (≥24%)”, the MS result is given as “+ (≥4%)” and the PS result is reported as “ND (^ <4%)”. In addition, the UK result under setting [10] is listed as “ND (^ <4%)”.

With `CNC1COc2scc(C(F)(F)F)c2C1` (single isomer, unassigned) [Compound 290, N-methyl-5-(trifluoromethyl)-3,4-dihydro-2H-thieno[2,3-b]pyran-3-amine hydrochloride], under setting [1], the AD result is reported as “ND (^ <4%)” and the UK result was “+ (≥4%)”. The MED under setting [3] is on record as >3 mpk.

For the compound `CNC1CCc2csc(C3CC3)c2C1` (stereo not drawn) [Compound 95, 3-cyclopropyl-N-methyl-4,5,6,7-tetrahydro-2-benzothiophen-5-amine hydrochloride], under setting [8], the minimal effective dose is 1 mg/kg. Moreover, under setting [4], the AD result was “+++ (≥49%)”, the AG result was “ND (^ <4%)”, the AN entry is on record as “ND (^ <4%)” and the AP entry is “++ (≥24%)”. Besides, under setting [4], the AX entry is listed as “ND (^ <4%)”, the CE entry is “ND (^ <4%)”, the HL result is “ND (^ <4%)” and the MS entry is “ND (^ <4%)”. Under setting [4], the PS entry is given as “ND (^ <4%)”, the SH entry was “ND (^ <4%)” and the UK entry is reported as “ND (^ <4%)”.

On to `CNC1CCc2csc(C(F)(F)F)c2C1` (single isomer, unassigned) [Compound 61, N-methyl-3-(trifluoromethyl)-4,5,6,7-tetrahydro-2-benzothiophen-5-amine hydrochloride], for which the “MED (minimal effective dose)” value (dose having 45% or more total activity in SmartCube, if only one dose was tested, hydrochloride) came to 3.0 mpk. Further, under setting [4], the AG entry is “ND (^ <4%)”, the AN result is recorded as “ND (^ <4%)”, the AX result is given as “ND (^ <4%)” and the CE result is reported as “ND (^ <4%)”. Also, under setting [4], the HL result is recorded as “ND (^ <4%)”, the MS entry is given as “ND (^ <4%)”, the PS entry is “ND (^ <4%)” and the SH entry is given as “ND (^ <4%)”. Also, the UK result under setting [4] is reported as “ND (^ <4%)”. Moreover, under setting [10], the AD result is “+ (≥4%)” and the AP result is “+++ (≥49%)”.

For `CNC1CCc2scc(C3CC3)c2C1` (single isomer, unassigned) [Compound 250, 3-cyclopropyl-N-methyl-4,5,6,7-tetrahydrobenzothiophen-5-amine hydrochloride], under setting [7], the AD result is reported as “ND (^ <4%)”, the AG entry was “ND (^ <4%)”, the AN entry was “ND (^ <4%)” and the CE entry is “ND (^ <4%)”. Under setting [7], the HL result is on record as “ND (^ <4%)”, the MS result is “ND (^ <4%)”, the PS entry was “ND (^ <4%)” and the SH result was “ND (^ <4%)”. Under setting [9], the AP result was “+ (≥4%)”, the AX result is recorded as “++++ (≥74%)” and the UK entry was “ND (^ <4%)”. Further, the MED (minimal effective dose: dose having 45% or more total activity in SmartCube, if only one dose tested) is 3 mpk.
